Reference: US8748347B2 (priority 2009, dated 2014)

What was measured:
Ramularia collo-cygni = assay: Preventive action on winter barley against Ramularia collo-cygni, field trial (Example 2); assay type: in vivo; conditions: barley variety Malwinta, natural infection, application at BBCH 49, evaluated 12 days after application, 0 = as untreated, 100 = not infected, UV Filter A 500 g ai/ha, Actives A & B 240 & 297 g ai/ha
Method: As active substance a mixture of active substances was used called “Actives A & B”, which was prepared by mixing Active A and Active B. Active A was a fungicidal suspension concentrate comprising 6 wt % epoxiconazol, 20.8 wt % boscalid, 11.2-12.6 wt % fatty alcohol alkoxylate, C8-alkyl glucoside, and phenolsulfonic acid-formaldehyde-polycondensate sodium salt (commercially available pesticide formulation from BASF SE as Champion®). Active B a fungicidal suspoemulsion comprising 20.6 wt % fenpropimorph, 11 wt % pyraclostrobin, 4.1 wt % epoxiconazol, 20.5 wt % solvent naphtha, 11 wt % fatty alcohol ethoxylate and 4.8 wt % phenolsulfonic acid-formaldehyde-polycondensate sodium salt (commercially available pesticide formulation from BASF SE as Diamant®). UV Filter A was prepared as described in example 1.
The biological trial was conducted under field conditions. The barley variety Malwinta was planted and grown under standard conditions with adequate supply of water and nutrients. […] The disease incidences were evaluated 12 days after application.
The diseases were converted into efficacies. […] The expected efficacies of active compound mixtures were determined using Colby's formula [R. S. Colby, “Calculating synergistic and antagonistic responses of herbicide combinations”, Weeds 15, 20-22 (1967)] and compared with the observed efficacies.

Septoria tritici = assay: Fungicidal action on pathogens, growth in medium analyzed at 405 nm (Example 3); assay type: cell-based; conditions: 2% malt medium, 125 ppm, 18° C., seven days
Method: Various pathogens were tested under respective test mediums and concentrations of UV filters (see Table 2). The pathogens were incubated at a temperature of 18° C. for seven days. The growth of the pathogens was compared to an untreated sample. Table 2 lists the growth compared to the untreated sample, which corresponds to 100%. The growth was analyzed at 405 nm.

Phytophthora infestans = assay type: cell-based; conditions: YPBG medium, 125 ppm, 18° C., seven days

With COCCOCCOCCOCCOCCOCCOCCOC(=O)C(C#N)=C(c1ccccc1)c1ccccc1 [UV Filter A, 2-Cyano-3,3-diphenyl-acrylsäure-[Pluriol A350E]-ester] the Efficacy (Ramularia collo-cygni) was 0, the “Growth (%) relative to untreated sample” value (Septoria tritici) was 40% and the “Growth (%) relative to untreated sample” value (Phytophthora infestans) was 78%.
